Measured values as given in US11021470B2, “2-substituted quinazoline compounds comprising a substituted heterocyclic group and methods of use thereof” (Araxes Pharma LLC, priority 2015, dated 2021).

Target: T1, KRAS G12C 1-169, his-tagged protein, GDP-loaded (Homo sapiens, UniProt P01116, G12C)
T1 construct: KRAS G12C 1-169, his-tagged protein, GDP-loaded
Assay: KRAS G12C covalent binding (% modification) by mass spectrometry, ten or three minute incubation
Details: covalent binding to KRAS G12C, % modification after a three minute incubation period
Summary of the method: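 GDP-loaded protein in 20 mM Hepes, 150 mM NaCl, 1 mM MgCl2 was incubated with compound (final 100, 30 or 10 μM; 2% DMSO) at room temperature, then quenched with formic acid. Intact-protein LC-MS with charge-envelope deconvolution gave masses and intensities of modified and unmodified species.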

Compound	Binding %
[2H]C([2H])([2H])N(C1CN(c2nc(N3C[C@@H](C)N(C(=O)C=C)C[C@@H]3C)c3cc(Cl)c(-c4c(O)cccc4F)c(F)c3n2)C1)C([2H])([2H])[2H] (atropisomer, axis not shown) [Compound 212, 1-((2R,5S)-4-(2-(3-(bis(tridueteromethyl)amino)azetidin-1-yl)-6-chloro-8-fluoro-7-((R)-2-fluoro-6-hydroxyphenyl)quinazolin-4-yl)-2,5-dimethylpiperazin-1-yl)prop-2-en-1-one]	+ (+ indicates binding activity greater than 0% and up to 50%)
C=CC(=O)N1C[C@H](C)N(c2nc(OCCN3CC(F)(F)C3)nc3c(F)c(-c4c(O)cccc4F)c(Cl)cc23)C[C@H]1C [Compound 89, 1-((2R,5S)-4-(6-chloro-2-(2-(3,3-difluoroazetidin-1-yl)ethoxy)-8-fluoro-7-((R)-2-fluoro-6-hydroxyphenyl)quinazolin-4-yl)-2,5-dimethylpiperazin-1-yl)prop-2-en-1-one]	+ (+ indicates binding activity greater than 0% and up to 50%)
C=CC(=O)N1C[C@H](C)N(c2nc(OCCc3nccn3C)nc3c(F)c(-c4c(O)cccc4F)c(Cl)cc23)C[C@H]1C (atropisomer, axis not shown) [Compound 288, 1-((2R,5S)-4-((S)-6-chloro-8-fluoro-7-(2-fluoro-6-hydroxyphenyl)-2-(2-(1-methyl-1H-imidazol-2-yl)ethoxy)quinazolin-4-yl)-2,5-dimethylpiperazin-1-yl)prop-2-en-1-one]	+++ (+++ indicates binding activity greater than 90%)
C=CC(=O)N1C[C@H](C)N(c2nc(N3CC(N(C)C)C3)nc3c(F)c(-c4c(C)ccc5[nH]cnc45)c(Cl)cc23)C[C@H]1C [Compound 273, 1-((2R,5S)-4-(6-chloro-2-(3-(dimethylamino)azetidin-1-yl)-8-fluoro-7-(5-methyl-1H-benzo[d]imidazol-4-yl)quinazolin-4-yl)-2,5-dimethylpiperazin-1-yl)prop-2-en-1-one]	+++ (+++ indicates binding activity greater than 90%)
C=CC(=O)N1CCN(c2nc(N3CC(N(C)C)C3)nc3c(F)c(-c4c(O)cccc4F)c(C(F)(F)F)cc23)C[C@H]1C (atropisomer, axis not shown) [Compound 272, 1-((R)-4-(2-(3-(dimethylamino)azetidin-1-yl)-8-fluoro-7-((R)-2-fluoro-6-hydroxyphenyl)-6-(trifluoromethyl)quinazolin-4-yl)-2-methylpiperazin-1-yl)prop-2-en-1-one]	+++ (+++ indicates binding activity greater than 90%)
C=CC(=O)N1C[C@H](C)N(c2nc(N3CC(N(C)C)C3)nc3c(F)c(-c4c(F)ccc5cn[nH]c45)c(Cl)cc23)C[C@H]1C [Compound 261, 1-((2R,5S)-4-(6-chloro-2-(3-(dimethylamino)azetidin-1-yl)-8-fluoro-7-(6-fluoro-1H-indazol-7-yl)quinazolin-4-yl)-2,5-dimethylpiperazin-1-yl)prop-2-en-1-one]	+++ (+++ indicates binding activity greater than 90%)
C=CC(=O)N1C[C@H](C)N(c2nc(OCCc3ncc(C)n3C)nc3c(F)c(-c4c(O)cccc4F)c(Cl)cc23)C[C@H]1C (atropisomer, axis not shown) [Compound 289, 1-((2R,5S)-4-((S)-6-chloro-2-(2-(1,5-dimethyl-1H-imidazol-2-yl)ethoxy)-8-fluoro-7-(2-fluoro-6-hydroxyphenyl)quinazolin-4-yl)-2,5-dimethylpiperazin-1-yl)prop-2-en-1-one]	+++ (+++ indicates binding activity greater than 90%)
C=CC(=O)N1C[C@H](C)N(c2nc(OCCn3ccnc3)nc3c(F)c(-c4c(O)cccc4F)c(Cl)cc23)C[C@H]1C (atropisomer, axis not shown) [Compound 249, 1-((2R,5S)-4-(2-(2-(1H-imidazol-1-yl)ethoxy)-6-chloro-8-fluoro-7-((S)-2-fluoro-6-hydroxyphenyl)quinazolin-4-yl)-2,5-dimethylpiperazin-1-yl)prop-2-en-1-one]	+++ (+++ indicates binding activity greater than 90%)
C=CC(=O)N1C[C@H](C)N(c2nc(N3CC(N(C)C)C3)nc3c(F)c(-c4c(C)ccc5[nH]nc([N+](=O)[O-])c45)c(Cl)cc23)C[C@H]1C [Compound 297, 1-((2R,5S)-4-(6-chloro-2-(3-(dimethylamino)azetidin-1-yl)-8-fluoro-7-(5-methyl-3-nitro-1H-indazol-4-yl)quinazolin-4-yl)-2,5-dimethylpiperazin-1-yl)prop-2-en-1-one]	+ (+ indicates binding activity greater than 0% and up to 50%)
C=CC(=O)N1C[C@H](C)N(c2nc(OCCn3ccnc3CC)nc3c(F)c(-c4c(C)ccc5[nH]ncc45)c(Cl)cc23)C[C@H]1C [Compound 283, 1-((2R,5S)-4-(6-chloro-2-(2-(2-ethyl-1H-imidazol-1-yl)ethoxy)-8-fluoro-7-(5-methyl-1H-indazol-4-yl)quinazolin-4-yl)-2,5-dimethylpiperazin-1-yl)prop-2-en-1-one]	+++ (+++ indicates binding activity greater than 90%)
C=CC(=O)N1C[C@H](C)N(c2nc(OCC(C)(C)C#N)nc3c(F)c(-c4c(O)cccc4F)c(Cl)cc23)C[C@H]1C (atropisomer, axis not shown) [Compound 282, 3-((4-((2S,5R)-4-acryloyl-2,5-dimethylpiperazin-1-yl)-6-chloro-8-fluoro-7-((S)-2-fluoro-6-hydroxyphenyl)quinazolin-2-yl)oxy)-2,2-dimethylpropanenitrile]	++ (++ indicates binding activity from 50 to 90%)
C=CC(=O)N1C[C@H](C)N(c2nc(OCCn3cncn3)nc3c(F)c(-c4c(O)cccc4F)c(Cl)cc23)C[C@H]1C (atropisomer, axis not shown) [Compound 259, 1-((2R,5S)-4-(2-(2-(1H-1,2,4-triazol-1-yl)ethoxy)-6-chloro-8-fluoro-7-((S)-2-fluoro-6-hydroxyphenyl)quinazolin-4-yl)-2,5-dimethylpiperazin-1-yl)prop-2-en-1-one]	+++ (+++ indicates binding activity greater than 90%)
C=CC(=O)N1C[C@H](C)N(c2nc(OCCCN3CC(F)(F)C3)nc3c(F)c(-c4c(C)ccc5[nH]ncc45)c(Cl)cc23)C[C@H]1C [Compound 248, 1-((2R,5S)-4-(6-chloro-2-(3-(3,3-difluoroazetidin-1-yl)propoxy)-8-fluoro-7-(5-methyl-1H-indazol-4-yl)quinazolin-4-yl)-2,5-dimethylpiperazin-1-yl)prop-2-en-1-one]	++ (++ indicates binding activity from 50 to 90%)
C=CC(=O)N1C[C@H](C)N(c2nc(OCCn3cnnc3)nc3c(F)c(-c4c(O)cccc4F)c(Cl)cc23)C[C@H]1C (atropisomer, axis not shown) [Compound 280, 1-((2R,5S)-4-(2-(2-(4H-1,2,4-triazol-4-yl)ethoxy)-6-chloro-8-fluoro-7-((S)-2-fluoro-6-hydroxyphenyl)quinazolin-4-yl)-2,5-dimethylpiperazin-1-yl)prop-2-en-1-one]	+++ (+++ indicates binding activity greater than 90%)
C=CC(=O)N1C[C@H](C)N(c2nc(N3CC(N(C)C)C3)nc3c(F)c(-c4c(C)ccc5[nH]nc(C(N)=O)c45)c(Cl)cc23)C[C@H]1C [Compound 296, 4-(4-((2S,5R)-4-acryloyl-2,5-dimethylpiperazin-1-yl)-6-chloro-2-(3-(dimethylamino)azetidin-1-yl)-8-fluoroquinazolin-7-yl)-5-methyl-1H-indazole-3-carboxamide]	++ (++ indicates binding activity from 50 to 90%)
C=CC(=O)N1C[C@H](C)N(c2nc(OCCO)nc3c(F)c(-c4c(O)cccc4F)c(Cl)cc23)C[C@H]1C [Compound 253, 1-((2R,5S)-4-(6-chloro-8-fluoro-7-(2-fluoro-6-hydroxyphenyl)-2-(2-hydroxyethoxy)quinazolin-4-yl)-2,5-dimethylpiperazin-1-yl)prop-2-en-1-one]	++ (++ indicates binding activity from 50 to 90%)
C=CC(=O)N1C[C@H](C)N(c2nc(OCCn3cnc4ccccc43)nc3c(F)c(-c4c(O)cccc4F)c(Cl)cc23)C[C@H]1C [Compound 254, 1-((2R,5S)-4-(2-(2-(1H-benzo[d]imidazol-1-yl)ethoxy)-6-chloro-8-fluoro-7-(2-fluoro-6-hydroxyphenyl)quinazolin-4-yl)-2,5-dimethylpiperazin-1-yl)prop-2-en-1-one]	+ (+ indicates binding activity greater than 0% and up to 50%)
C=CC(=O)N1C[C@H](C)N(c2nc(OCCn3ccnc3C3CC3)nc3c(F)c(-c4c(C)ccc5[nH]ncc45)c(Cl)cc23)C[C@H]1C [Compound 276, 1-((2R,5S)-4-(6-chloro-2-(2-(2-cyclopropyl-1H-imidazol-1-yl)ethoxy)-8-fluoro-7-(5-methyl-1H-indazol-4-yl)quinazolin-4-yl)-2,5-dimethylpiperazin-1-yl)prop-2-en-1-one]	++ (++ indicates binding activity from 50 to 90%)
C=CC(=O)N1C[C@H](C)N(c2nc(N3CC(N(C)C)C3)nc3c(F)c(-c4c(C)ccc5cn[nH]c45)c(Cl)cc23)C[C@H]1C [Compound 187, 1-((2R,5S)-4-(6-chloro-2-(3-(dimethylamino)azetidin-1-yl)-8-fluoro-7-(6-methyl-1H-indazol-7-yl)quinazolin-4-yl)-2,5-dimethylpiperazin-1-yl)prop-2-en-1-one]	+++ (+++ indicates binding activity greater than 90%)
C=CC(=O)N1C[C@H](C)N(c2nc(OCCc3cncnc3)nc3c(F)c(-c4c(O)cccc4F)c(Cl)cc23)C[C@H]1C (atropisomer, axis not shown) [Compound 262, 1-((2R,5S)-4-(6-chloro-8-fluoro-7-((S)-2-fluoro-6-hydroxyphenyl)-2-(2-(pyrimidin-5-yl)ethoxy)quinazolin-4-yl)-2,5-dimethylpiperazin-1-yl)prop-2-en-1-one]	+++ (+++ indicates binding activity greater than 90%)
